“Also recorded” adds a separate entry of the source. Like-named read-outs stand apart in the source and are kept apart here.
Assays:
[1] = tested on: isolated CB-CSN preparations; assay: hypoxia-induced CSN activity in isolated superfused CB-CSN preparation; design: species or system C57B1/6J (WT) mice; conditions: for leptin-enhanced hypoxia-induced CSN activity: effect of nonspecific TRP channel antagonist; for hypoxia-induced CSN activity: effect of leptin
Text: SKF and 2-APB data were pooled, *p<0.05.
Leptin and carotid body function CBs are major peripheral O2 sensors, which initiate chemosensory inputs in the CSN to the respiratory centers via nucleus solitarius to evoke acute hyperventilation, and the rostral ventrolateral medulla presympathetic neurons to stimulate SNS activity. CB plays critical roles in the development of hypertension during chronic intermittent hypoxia (CIH); and the sympatho-excitation and destabilization of breathing during heart failure. However, the connection between CB and the obesity-associated hypertension and respiratory instability has not been clearly established. […] The effect of leptin on isolated CB-CSN preparations from C57B1/6J (WT) mice was studied.

[2] = tested on: rat glomus cells; conditions: cited from earlier work
[3] = biological target: TRPM7 (Homo sapiens, UniProt Q96QT4); conditions: cited from earlier work
Chain of TRPM7 (Homo sapiens, UniProt Q96QT4) (Q96QT4 whole entry, species assumed): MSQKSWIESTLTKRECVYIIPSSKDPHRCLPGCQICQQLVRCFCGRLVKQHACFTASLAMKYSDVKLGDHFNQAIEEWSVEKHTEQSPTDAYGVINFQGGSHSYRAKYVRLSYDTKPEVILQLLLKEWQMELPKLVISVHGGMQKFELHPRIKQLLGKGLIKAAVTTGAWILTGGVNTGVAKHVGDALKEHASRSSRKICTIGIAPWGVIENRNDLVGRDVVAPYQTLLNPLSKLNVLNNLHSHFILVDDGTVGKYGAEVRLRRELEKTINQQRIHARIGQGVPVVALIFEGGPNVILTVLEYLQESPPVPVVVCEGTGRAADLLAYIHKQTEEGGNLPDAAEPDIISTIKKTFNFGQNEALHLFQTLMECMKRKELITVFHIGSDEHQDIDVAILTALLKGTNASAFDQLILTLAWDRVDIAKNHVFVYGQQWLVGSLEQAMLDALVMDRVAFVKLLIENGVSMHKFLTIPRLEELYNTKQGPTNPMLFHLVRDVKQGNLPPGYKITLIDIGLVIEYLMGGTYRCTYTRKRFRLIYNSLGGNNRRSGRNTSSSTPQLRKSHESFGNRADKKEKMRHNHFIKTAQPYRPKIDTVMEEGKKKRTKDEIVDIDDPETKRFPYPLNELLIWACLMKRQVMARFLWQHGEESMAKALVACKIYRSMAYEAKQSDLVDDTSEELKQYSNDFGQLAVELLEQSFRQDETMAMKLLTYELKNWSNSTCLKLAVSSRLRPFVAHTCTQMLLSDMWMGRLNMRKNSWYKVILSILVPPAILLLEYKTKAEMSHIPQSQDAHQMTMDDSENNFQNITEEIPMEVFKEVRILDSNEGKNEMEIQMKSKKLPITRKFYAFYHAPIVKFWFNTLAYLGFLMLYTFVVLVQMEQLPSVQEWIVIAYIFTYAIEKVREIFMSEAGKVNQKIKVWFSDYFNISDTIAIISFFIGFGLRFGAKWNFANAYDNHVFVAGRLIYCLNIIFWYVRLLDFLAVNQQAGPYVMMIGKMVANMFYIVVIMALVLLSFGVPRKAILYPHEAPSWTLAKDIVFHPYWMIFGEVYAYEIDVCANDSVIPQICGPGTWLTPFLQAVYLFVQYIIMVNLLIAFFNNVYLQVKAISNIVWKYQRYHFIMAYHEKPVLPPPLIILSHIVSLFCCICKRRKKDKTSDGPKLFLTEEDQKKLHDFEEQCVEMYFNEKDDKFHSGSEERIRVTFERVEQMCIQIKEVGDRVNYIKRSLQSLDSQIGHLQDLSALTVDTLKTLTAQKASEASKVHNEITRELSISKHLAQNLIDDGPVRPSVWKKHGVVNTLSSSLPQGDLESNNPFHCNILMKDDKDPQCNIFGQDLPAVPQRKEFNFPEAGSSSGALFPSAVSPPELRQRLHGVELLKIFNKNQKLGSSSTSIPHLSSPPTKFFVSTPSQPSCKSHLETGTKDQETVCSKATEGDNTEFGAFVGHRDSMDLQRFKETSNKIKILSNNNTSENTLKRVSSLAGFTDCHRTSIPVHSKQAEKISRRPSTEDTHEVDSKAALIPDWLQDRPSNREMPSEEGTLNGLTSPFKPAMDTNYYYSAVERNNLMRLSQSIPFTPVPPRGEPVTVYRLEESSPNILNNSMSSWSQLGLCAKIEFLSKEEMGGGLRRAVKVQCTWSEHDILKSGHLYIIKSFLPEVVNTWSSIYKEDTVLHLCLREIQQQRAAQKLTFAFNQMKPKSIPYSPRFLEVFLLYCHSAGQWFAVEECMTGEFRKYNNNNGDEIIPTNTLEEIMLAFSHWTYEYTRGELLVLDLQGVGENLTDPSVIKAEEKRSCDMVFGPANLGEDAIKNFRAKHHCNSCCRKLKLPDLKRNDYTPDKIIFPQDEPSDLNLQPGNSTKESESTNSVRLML

[4] = tested on: TRPM7; assay: Trpm7 mRNA level by qPCR in PC12^LEPRb cells; format: cell-based; conditions: 48 hr exposure
Method: (§1) FIG. 8A-8C illustrates exposure of leptin to Leprb-expressing PC12^LEPRb cells increased Trpm7 promoter activity and gene transcription. (A) PC12^LEPRb cells transfected with either pEZX-Luc-vector (empty, no insert) or pEZX-Luc-Trpm7 (promoter insert) were exposed to 1 ng/ml leptin for 48 hr prior to measurement of luciferase activity. B and C) Gene expression and promoter methylation of Trpm7 in cells exposed to leptin or 5-aza-dC for 48 hr. Trpm7 mRNA level was quantitated by qPCR. Methylation status of CpG sites in Trpm7 promoter were determined by bisulfite sequencing. A total of 40 CpG sites per clone and 6 individual clones for each treatment group were sequenced. Each row of circles represented an individual clone. Putative TF binding sites such as STAT3 and NFkB were shown in scale in Trpm7 promoter. TSS: transcription start site. Boxed regions highlight the CpG sites showing differential methylation in cells exposed to leptin or 5-aza-dC. (p<0.05). Values were mean±SD.
(§2) Leptin can regulate gene transcription by binding to ObRb to activate Janus kinase 2/signal transducers and activator of transcription 3 (JAK2/STAT3) as well as ERK1/2 and PI3K pathways (FIG. 7), which are known to regulate a wide variety of genes. To examine the possible regulation of Trpm7 transcription by leptin, we searched the Trpm7 promoter sequence for potential binding sites for transcription factors (TFs). […]

[5] = mice; cited from earlier work
[6] = biological target: T1, TRPM7 (Rattus norvegicus, UniProt Q925B3); assay: non-selective cation (TRPM7) current, amphotericin-B perforated-patch recording in PC12^LEPRb cells; format: cell-based; conditions: for leptin-enhanced non-selective cation current / naltriben-induced increase of the current: effect of TRPM7 antagonist
T1 construct: PC12 cells are oxygen-sensitive, express high level of TRPM7; endogenous in cells; host or cells: PC12^LEPRb cells (PC12 transfected with leptin receptor LEPRb; TRPM7 itself not transfected)
T1 sequence (Q925B3 whole entry): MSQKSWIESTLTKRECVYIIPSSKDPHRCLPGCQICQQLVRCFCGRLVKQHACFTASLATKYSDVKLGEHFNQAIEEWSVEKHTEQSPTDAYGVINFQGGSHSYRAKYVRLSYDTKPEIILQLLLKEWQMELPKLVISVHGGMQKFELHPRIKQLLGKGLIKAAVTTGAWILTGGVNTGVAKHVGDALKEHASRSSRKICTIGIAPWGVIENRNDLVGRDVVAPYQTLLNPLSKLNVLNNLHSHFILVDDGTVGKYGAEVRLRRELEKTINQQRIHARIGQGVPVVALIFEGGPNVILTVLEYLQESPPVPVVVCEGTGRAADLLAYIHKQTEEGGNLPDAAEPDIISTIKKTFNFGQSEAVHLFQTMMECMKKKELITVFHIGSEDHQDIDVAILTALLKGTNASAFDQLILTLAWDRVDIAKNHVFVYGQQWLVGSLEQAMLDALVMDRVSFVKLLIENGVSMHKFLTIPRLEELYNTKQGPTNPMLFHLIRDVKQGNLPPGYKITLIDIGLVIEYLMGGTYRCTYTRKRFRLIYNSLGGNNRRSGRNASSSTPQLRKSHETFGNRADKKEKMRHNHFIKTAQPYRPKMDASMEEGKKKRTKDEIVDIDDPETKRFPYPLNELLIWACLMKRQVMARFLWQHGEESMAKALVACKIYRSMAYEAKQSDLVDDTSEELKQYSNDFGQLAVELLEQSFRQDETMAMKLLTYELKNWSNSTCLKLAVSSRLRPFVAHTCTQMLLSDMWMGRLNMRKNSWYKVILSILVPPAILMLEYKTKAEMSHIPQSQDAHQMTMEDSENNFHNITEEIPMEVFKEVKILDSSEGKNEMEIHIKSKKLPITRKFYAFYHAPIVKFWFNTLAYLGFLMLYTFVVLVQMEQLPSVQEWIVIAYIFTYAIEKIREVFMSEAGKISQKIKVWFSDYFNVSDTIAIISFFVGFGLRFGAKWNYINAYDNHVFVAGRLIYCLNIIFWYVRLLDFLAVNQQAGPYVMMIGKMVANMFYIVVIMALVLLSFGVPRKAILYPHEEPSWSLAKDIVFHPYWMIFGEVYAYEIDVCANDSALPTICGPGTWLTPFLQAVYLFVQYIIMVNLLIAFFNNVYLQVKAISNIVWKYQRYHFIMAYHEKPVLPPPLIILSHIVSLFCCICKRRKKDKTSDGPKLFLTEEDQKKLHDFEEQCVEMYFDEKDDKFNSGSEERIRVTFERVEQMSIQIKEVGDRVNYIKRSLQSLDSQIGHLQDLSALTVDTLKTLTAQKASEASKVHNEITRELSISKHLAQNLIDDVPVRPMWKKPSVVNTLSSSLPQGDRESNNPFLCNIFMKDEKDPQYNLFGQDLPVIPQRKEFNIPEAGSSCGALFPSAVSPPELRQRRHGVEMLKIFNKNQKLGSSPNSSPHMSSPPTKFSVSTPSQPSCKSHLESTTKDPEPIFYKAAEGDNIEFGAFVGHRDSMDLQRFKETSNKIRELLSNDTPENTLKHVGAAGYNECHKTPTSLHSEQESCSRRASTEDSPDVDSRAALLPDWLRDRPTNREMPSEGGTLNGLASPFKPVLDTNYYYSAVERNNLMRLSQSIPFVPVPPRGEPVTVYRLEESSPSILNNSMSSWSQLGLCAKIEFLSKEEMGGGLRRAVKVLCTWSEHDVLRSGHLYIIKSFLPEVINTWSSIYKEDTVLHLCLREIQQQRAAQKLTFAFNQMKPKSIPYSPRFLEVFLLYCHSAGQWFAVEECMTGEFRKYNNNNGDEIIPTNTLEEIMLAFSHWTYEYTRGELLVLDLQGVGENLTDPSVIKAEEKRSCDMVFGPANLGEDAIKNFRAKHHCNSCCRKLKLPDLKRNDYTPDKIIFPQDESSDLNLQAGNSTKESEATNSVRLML
Text: FIG. 5A-5C illustrates leptin enhances TRPM7 current in leptin receptor expressing PC12 cells.
Leptin can regulate TRPM7 channel activity. Leptin exerts its action by binding to the long form of leptin receptors (LEPRb, ObRb), which is the only functional isoform of leptin receptor. The possible effect of leptin on TRPM7 channel activity was investigated, by using LEPRb expressing adrenal pheochromocytoma PC12 (PC12^LEPRb) cells as the cell model, because PC12 cells are oxygen-sensitive, express high level of TRPM7 and have been used widely in the studies of chemoreception. Non-selective cation current was recorded using amphotericin-B perforated-patch technique in the absence of extracellular and intracellular K^+ (replaced by Cs^+) and Mg^2+, after VDCC was blocked by nifedipine and Cl^− currents were inhibited by DIDS and niflumic acid. Voltage-ramp of −100 to +100 mV elicited an outward rectifying current that resembled TRPM7 current reported in other cell types. […] The leptin-induced current was not observed in PC12 cells transfected with a control plasmid (data not shown). The present invention provides the first evidence showing activation of leptin receptor is capable of enhancing TRPM7 activity, and it supports our hypothesis that leptin may enhance CB activity through regulation of TRPM7 activity.
Obesity is a leading cause of high cardiovascular morbidity and mortality. It is characterized by an increased leptin level, which has been implicated in increased sympathetic activity and the pathogenesis of hypertension. However, the mechanism by which leptin enhances sympathetic activity is unclear. Leptin receptors (LEPRs) are expressed in the carotid bodies, the most important arterial chemoreceptors for the cardiovascular-respiratory chemoreflex. Since leptin is known to regulate many different ion channels, we hypothesize that leptin may exert its effects through modulation of TRPM7 channel activity. To test this hypothesis, the inventors used LEPR (LEPRb) expressing pheochromocytoma (PC12^LEPRb) cells, which expresses high levels of TRPM7 channels, as the cell model. Non-selective cation channels were recorded under amphotericin-B perforated-patch techniques with K^+ replaced by Cs^+ in the presence of voltage-gated Ca^2+ channel and Cl^− channel blockers. Voltage-ramp from −100 to 100 mV activated an outward-rectifying current. Removal of extracellular divalent ions enhanced the inward current, consistent with the inward divalent ion selectivity of TRPM7.

[7] = humans; cited from earlier work
[8] = tested on: C57BL/6J mice; assay: telemetric blood pressure in mice, leptin-induced hypertension; format: in vivo, mouse
Method: Leptin signals in the CB to increase blood pressure. Male C57BL/6J mice, n=6 housed in a 12 hr light/dark cycle underwent telemetry implantation (Data Sciences) in the left femoral artery as we have described. […] After 4 day recovery mice were treated with vehicle (saline) regaining weight. On Day 17th of the protocol, carotid sinus nerve dissection (CSND, CB denervation) was performed bilaterally. After 1 week recovery, leptin and vehicle infusions were repeated. […] In contrast, CB denervation greatly modified cardiovascular effects of leptin. Indeed, in mice with intact carotid bodies leptin increased mean arterial pressure by 13 mm Hg during the day and by 16 mm Hg at night (FIG. 16A). […] Thus, leptin increases blood pressure acting in the CB.
FTY720 abolishes leptin-induced hypertension. There are multiple TRPM7 inhibitors available. We used a potent TRPM7 inhibitor FTY720 for several reasons. FTY720 is a novel immunomodulator and a structural homolog of shingosine-1-phosphate (S1P) blocking S1P effects in many diseases, including atherosclerosis, cancer, asthma, autoimmune diseases and acute lung injury. First, FTY270 has already been approved by FDA for multiple sclerosis (fingolimod). […] The experiment was performed in lean (24-26 g) C57BL/6J mice (n=5). Telemetry for continuous blood pressure recording was inserted. After 5 day recovery, mice were treated with leptin for 3 days as above. The pump was removed. After 7 day recovery, leptin was reinfused as above, but FTY720 was infused SC simultaneously at 0.1 mg/day (approximately 3 mg/kg/day).
Obesity leads to cardiovascular morbidity and mortality acting via multiple mechanisms including hypertension and obstructive sleep apnea. High levels of leptin have been associated with both conditions. The carotid bodies (CB) express leptin receptor (LepR), but the mechanism of leptin in CB is unknown. […] (CSND). In mice with intact CB, leptin increased mean arterial pressure by 13 mm Hg during the day and by 16 mm Hg at night (p=0.003 for the effect of leptin). […] Leptin receptor expression in carotid bodies of leptin receptor deficient db/db mice led to the same effect (n=6, p<0.05). […] Finally, the inventors tested the effect of a Trpm7 inhibitor on leptin-induced hypertension. The inventors performed blood pressure monitoring in male C57BL/6J mice (n=5˜9) at baseline, during leptin infusion with or without Trpm7 inhibitor, FTY720 (3 mg/kg/day, sc, n=5) for 24 hrs. […] The inventors conclude that leptin increases blood pressure acting in the CB via the Trpm7 channel.

[9] = tested on: C57BL/6J mice; assay: minute ventilation and hypoxic ventilatory response (HVR) in awake lean mice; format: in vivo, mouse
Method: (§3) Leptin increases the HVR in lean mice. Minute ventilation (VE) was measured at normoxic conditions and during 3-5 min exposure to 10% O2 in awake lean male C57BL/6J mice, n=4, at baseline and during leptin administration (30 μg/day for 3 days via a subcutaneous osmotic pump). Serum leptin levels increased from 0.8±0.2 ng/ml to 33.2±1.9 ng/ml, which was similar to previously reported in DIO mice and obese humans, and then returned to the baseline. Mice decreased food intake and lost weight. Leptin increased VE at baseline as a result of an increase in the metabolic rate (FIG. 10). Leptin increased the HVR by greater than 60%.
Trpm7 inhibition prevents effects of leptin on the HVR. […] Male C57BL/6J mice (n=2) were treated with leptin for 3 days as described above. After 5 day recovery, leptin and a TRPM7 blocker NS8593 (10 mg/kg/day) were administered subcutaneously via an osmotic pump for 3 days. Mice reduced food intake and lost weight with leptin, regardless of the TRPM7 inhibitor.

[10] = tested on: Trpm7 promoter; assay: Trpm7 promoter luciferase reporter in PC12^LEPRb cells; format: cell-based; conditions: leptin 1 ng/ml, 48 hr
Method: as §1, §2

[11] = serum leptin levels during leptin administration; format: in vivo, mouse; conditions: leptin 30 μg/day for 3 days, subcutaneous osmotic pump
Method: as §3

[12] = tested on: Trpm7 promoter; assay: Trpm7 promoter methylation by bisulfite sequencing in PC12^LEPRb cells; format: cell-based; conditions: leptin exposure
Method: as §1, §2

[13] = NS8593 10 mg/kg/day subcutaneously via osmotic pump for 3 days with leptin, 10 mg/kg/day
[14] = leptin infusion for 3 days, intact carotid bodies

Compound: NCCOB(c1ccccc1)c1ccccc1 [2-APB, 2-aminoethoxydiphenylborane]
- leptin-enhanced hypoxia-induced CSN activity [1]: blocked
- elevation of [Ca2+]i induced by hypoxia, NaCN and FCCP [2]: inhibited
- TRPM7 channel activity [3]: inhibited

Compound: Nc1ncn([C@H]2C[C@H](O)[C@@H](CO)O2)c(=O)n1 [5-aza-dC]
- Trpm7 mRNA level [4]: increased

Compound: CCCCCCCCc1ccc(CCC(N)(CO)CO)cc1 [FTY720, 2-amino-2-[2-(4-octylphenyl)ethyl]propane-1,3-diol]
- half-life [5]: 19 to 28 h
- leptin-enhanced non-selective cation current [6]: significantly inhibited; also recorded: completely blocked
- naltriben-induced increase of the current [6]: abolished
- leptin-enhanced non-selective cation current ([6]; listed as FTY120): almost completely abolished
- half-life [7]: 170 h
- leptin-induced hypertension ([8]; FTY720 SC 0.1 mg/day (approximately 3 mg/kg/day) with leptin): completely abolished; also recorded: prevented
- TRPM7 channel activity [3]: inhibited

Compound: Cl.c1ccc2c(c1)CCC[C@H]2Nc1nc2ccccc2[nH]1 [NS8593, N-[(1R)-1,2,3,4-Tetrahydro-1-naphthalenyl]-1H-Benzimidazol-2-aminehydrochloride]
- leptin-enhanced non-selective cation current [6]: completely blocked; also recorded: almost completely abolished
- naltriben-induced increase of the current [6]: abolished
- basal ventilation ([9]; NS8593 10 mg/kg/day subcutaneously via osmotic pump for 3 days with leptin): without any effect
- leptin-induced hypoxic hyperventilation (VE during acute hypoxia) [9, 13]: abolished; also recorded: prevented
- leptin-induced increase in the HVR [9, 13]: abolished; also recorded: abolishing
- TRPM7 channel activity [3]: inhibited

Compound: COc1ccc(CCCOC(Cn2ccnc2)c2ccc(OC)cc2)cc1 (centres unmarked) [SKF96365]
- leptin-enhanced hypoxia-induced CSN activity [1]: dampened; also recorded: blocked

Compound: Cc1ccc(C(C)C)cc1O [carvacrol]
- TRPM7 channel activity [3]: inhibited

Compound: Oc1ccc2c3c1O[C@H]1c4oc5ccccc5c4C[C@@]4(O)[C@@H](C2)N(CC2CC2)CC[C@]314 [naltriben]
- outward rectifying non-selective cation (TRPM7) current ([6]; effect of TRPM7 agonist (50 μM elsewhere in the source), voltage-ramp −100 to +100 mV): significant augmentation; also recorded: significant increase
- TRPM7 channel activity [3]: activated

Compound: CCCCCCCCCCCCC/C=C/[C@@H](O)[C@@H](N)CO [sphingosine]
- TRPM7 channel activity [3]: inhibited

Compound: leptin: an adipocyte-produced hormone
- Trpm7 mRNA level [4]: increased; also recorded: significant increase
- hypoxia-induced CSN activity [1]: significantly augmented
- hypoxia-induced CSN activity ([1]; listed as Leptin): augments
- outward rectifying non-selective cation (TRPM7) current ([6]; effect of leptin (10-100 ng/ml elsewhere in the source)): enhances; also recorded: concentration-dependent increase
- Trpm7 promoter luciferase activity [10]: significantly increased
- body weight ([9]; leptin 30 μg/day for 3 days): lost weight
- food intake ([9]; leptin 30 μg/day for 3 days): decreased
- increase of the HVR ([9]; leptin 30 μg/day for 3 days, subcutaneous osmotic pump, 10% O2): greater than 60%
- hypoxic ventilatory response (HVR), in words ([9]; leptin infusion): increased
- minute ventilation (VE) at baseline ([9]; leptin infusion, normoxic): increased
- heart rate ([8]; leptin): increases
- mean arterial pressure, in words ([8]; leptin): increases
- increase of mean arterial pressure at night [8, 14]: 16 mm Hg
- increase of mean arterial pressure during the day [8, 14]: 13 mm Hg
- serum leptin levels [11]: 33.2 ± 1.9 ng/mL
- methylation status of Trpm7 promoter [12]: CpG site-specific demethylation

From patent publication US20200054581A1, “APPLICATION OF TRPM7 INHIBITORS TO TREAT SLEEP APNEA AND HYPERTENSION IN OBESITY” (THE JOHNS HOPKINS UNIVERSITY, priority 2017, published 2020)
